{"source": "patent US12343346B2", "about": "“Salts and solid forms of (S)-3-(4-((4-(morpholinomethyl)benzyl)oxy)-1-oxoisoindolin-2-yl)piperidine-2,6-dione and compositions comprising and methods of using the same” (Celgene Corporation, priority 2012, dated 2025)", "key": {"[1]": {"experiment": "Stability and form transfer experiments of HCl salt forms (XRPD result)", "format": "physicochemical", "method": "(§1) All of the solid samples generated in the polymorph screen were analyzed by XRPD. XRPD analysis was conducted on a PANalytical Empyrean or a Thermo ARL X'TRA X-ray powder diffractometer using Cu Kα radiation at 1.54 Å.\nFurther form conversion experiments were performed to determine interconversion among solid forms. Form conversion was also observed during further characterization of the solid forms."}, "[2]": {"experiment": "Competitive slurry / Form E and Form F transformation", "format": "physicochemical"}, "[3]": {"experiment": "Equilibration (slurry) of Form A at room temperature and 50° C., form by XRPD", "format": "physicochemical", "method": "Equilibration and evaporation experiments were carried out by adding an excess of the HCl salt to up to 2 mL of a test solvent. The resulting mixture was agitated for at least 24 hours at room temperature and 50° C. separately. Upon reaching equilibrium, the saturated supernatant solution was removed, filtered using 0.45 μm PTFE filters and allowed to evaporate in an open vial under nitrogen at room temperature and 50° C., respectively. The solid resulting from the equilibration was isolated and air-dried before analysis.\nas §1"}, "[4]": {"experiment": "Dynamic vapor sorption (DVS) moisture sorption/desorption", "format": "physicochemical", "method": "Hygroscopicity was determined on a Surface Measurement Systems DVS. […] The relative humidity was increased from 0% to 90% RH at 10% RH step, then at 95% RH. The relative humidity was then decreased in a similar manner to accomplish a full adsorption/desorption cycle. For hydrated forms, the analysis started at 50% RH and increased to 90% RH at 10% RH step. The relative humidity was then decreased in a similar manner to 0% RH followed by increasing to 50% RH."}, "[5]": {"experiment": "Compression test (2000-psi)", "format": "physicochemical", "conditions": "2000-psi pressure for about 1 minute", "method": "The stability of Form A was further characterized by compression test and form transfer experiments. Upon application of 2000-psi pressure for about 1 minute, the material was still Form A (FIG. 43)."}, "[6]": {"experiment": "Heating of solid form followed by XRPD", "format": "physicochemical", "method": "Form C was obtained from anti-solvent recrystallization in DMSO/n-BuOH, DMSO/MTBE or DMSO/BuOAc. DSC and TGA thermograms of Form C are shown in FIG. 52 and FIG. 53, respectively. The TGA weight loss of 1.6 and 15.1 wt % corresponded to broad DSC endotherm around 50° C. and endotherms around 142-146° C., respectively, and can be attributed to loss of solvent/water in Form C. The DSC thermogram with an onset temperature of 251.8° C. was due to final melt/decomposition. […] The ^1H-NMR spectrum of Form C was consistent with Compound I structure with approximately one molar equivalent (or ˜13.9 wt %) of DMSO solvent (FIG. 55). Without being limited by any particular theory, Form C is a DMSO solvate. […]"}}, "note": "Entries after “also recorded” stand apart in the source; their conditions may differ. Where a name gives a salt, the structure may show the parent alone. Read-outs that look alike come from different tables or passages of the source.", "data": [{"smiles": "O=C1CCC(N2Cc3c(OCc4ccc(CN5CCOCC5)cc4)cccc3C2=O)C(=O)N1", "note": "(racemic) [racemic Compound (I) hydrochloride methanol solvate]", "values": [{"measurement": "Form conversion upon exposure to ambient moisture", "setting": "[1]", "result": "converted to racemic Compound (I) hydrochloride hydrate"}, {"measurement": "Form conversion upon exposure to ambient moisture", "setting": "[1]; listed as MeOH solvate of HCl salt of racemic Compound (I)", "result": "converts to a hydrate of HCl salt of racemic Compound (I)"}]}, {"smiles": "Cl.O=C1CC[C@H](N2Cc3c(OCc4ccc(CN5CCOCC5)cc4)cccc3C2=O)C(=O)N1", "note": "[Form A + F]", "values": [{"measurement": "XRPD Result", "setting": "[2]; IPA/water (50/50), 3 days at RT", "result": "Form A"}, {"measurement": "XRPD Result", "setting": "[2]; IPA/water (65/35), 3 days at RT", "result": "Form A"}, {"measurement": "XRPD Result", "setting": "[2]; IPA/water (80/20), 6 days at RT", "result": "Form A"}, {"measurement": "XRPD Result", "setting": "[2]; IPA/water (95/5), 6 days at RT", "result": "Form A"}, {"measurement": "XRPD Result", "setting": "[2]; MeOAc saturated with water, 3 days at RT", "result": "Form A"}, {"measurement": "XRPD Result", "setting": "[2]; Water, 3 days at RT", "result": "Form A"}]}, {"smiles": "Cl.O=C1CC[C@H](N2Cc3c(OCc4ccc(CN5CCOCC5)cc4)cccc3C2=O)C(=O)N1", "note": "[Form A]", "values": [{"measurement": "Form by XRPD after equilibration", "setting": "[3]; MeCN/H2O (95:5), RT", "result": "Form D"}, {"measurement": "Form by XRPD after slurry", "setting": "[3]; non-aqueous solvents, 24 h of slurry", "result": "Form A"}, {"measurement": "Relative stability of forms (in words)", "setting": "[2]; water and aqueous/organic (aqueous/IPA) mixtures, competitive slurry", "result": "more stable than hydrate forms"}, {"measurement": "Hygroscopicity (in words, from DVS)", "setting": "[4]", "result": "slightly hygroscopic"}, {"measurement": "XRPD Result after DVS (adsorption/desorption cycles)", "setting": "[4]", "result": "remains as the Form A crystal; also recorded: no change"}, {"measurement": "DVS or other comments: water uptake", "setting": "[4]; from 0 to 90% RH", "result": 1.8, "unit": "wt % water uptake"}, {"measurement": "Form after compression", "setting": "[5]", "result": "remains as the Form A crystal form; also recorded: still Form A"}, {"measurement": "Approximate Solubility", "setting": "Acetone, room temperature", "result": "<1000", "unit": "µg/mL"}, {"measurement": "Approximate Solubility", "setting": "CH2Cl2, room temperature", "result": "<1000", "unit": "µg/mL"}, {"measurement": "Approximate Solubility", "setting": "CH3CN, room temperature", "result": "<1000", "unit": "µg/mL"}, {"measurement": "Approximate Solubility", "setting": "CH3CN/H2O (1:1), room temperature", "result": ">50000", "unit": "µg/mL"}, {"measurement": "Approximate Solubility", "setting": "DMSO, room temperature", "result": ">50000", "unit": "µg/mL"}, {"measurement": "Approximate Solubility", "setting": "EtOAc, room temperature", "result": "<1000", "unit": "µg/mL"}, {"measurement": "Approximate Solubility", "setting": "EtOH, room temperature", "result": "~1000", "unit": "µg/mL"}, {"measurement": "Approximate Solubility", "setting": "EtOH/H2O (1:1), room temperature", "result": ">50000", "unit": "µg/mL"}, {"measurement": "Approximate Solubility", "setting": "H2O, room temperature", "result": ">50000", "unit": "µg/mL"}, {"measurement": "Approximate Solubility", "setting": "Heptane, room temperature", "result": "<1000", "unit": "µg/mL"}, {"measurement": "Approximate Solubility", "setting": "IPA, room temperature", "result": "~1000", "unit": "µg/mL"}, {"measurement": "Approximate Solubility", "setting": "MEK, room temperature", "result": "<1000", "unit": "µg/mL"}, {"measurement": "Approximate Solubility", "setting": "MTBE, room temperature", "result": "<1000", "unit": "µg/mL"}, {"measurement": "Approximate Solubility", "setting": "MeOAc, room temperature", "result": "<1000", "unit": "µg/mL"}, {"measurement": "Approximate Solubility", "setting": "MeOH, room temperature", "result": "~10000", "unit": "µg/mL"}, {"measurement": "Approximate Solubility", "setting": "THF, room temperature", "result": "<1000", "unit": "µg/mL"}, {"measurement": "Approximate Solubility", "setting": "THF/H2O (1:1), room temperature", "result": ">50000", "unit": "µg/mL"}, {"measurement": "Approximate Solubility", "setting": "Toluene, room temperature", "result": "<1000", "unit": "µg/mL"}, {"measurement": "Solubility (most soluble)", "setting": "in MeCN/water (1:1), EtOH/water (1:1), THE/water (1:1), and water", "result": "greater than 50 mg/mL"}, {"measurement": "Solubility (in words)", "setting": "in MeOH", "result": "moderate solubility"}, {"measurement": "Solubility (low or very low)", "setting": "in acetone, MeCN, n-BuOH, EtOH, IPA, EtOAc, MEK, DCM, MTBE, heptane, MeOAc, toluene and THF", "result": "≤ 1000", "unit": "µg/mL"}, {"measurement": "Approximate Solubility", "setting": "n-BuOH, room temperature", "result": "<1000", "unit": "µg/mL"}]}, {"smiles": "Cl.O=C1CC[C@H](N2Cc3c(OCc4ccc(CN5CCOCC5)cc4)cccc3C2=O)C(=O)N1", "note": "[Form B]", "values": [{"measurement": "XRPD Result", "setting": "[1]; Exposed to ambient air, 1 week at RT", "result": "Form A"}, {"measurement": "XRPD Result", "setting": "[1]; IPA, 24 h at RT", "result": "Form A"}, {"measurement": "Form conversion during exposure to ambient / ambient storage", "setting": "[1]", "result": "converts to the Form A crystal form; also recorded: converted to Form A"}, {"measurement": "Form conversion during exposure to ambient / ambient storage", "setting": "[1]; listed as B", "result": "Converts to Form A"}, {"measurement": "XRPD Result after DVS (adsorption/desorption cycles)", "setting": "[4]", "result": "Form A"}]}, {"smiles": "Cl.O=C1CC[C@H](N2Cc3c(OCc4ccc(CN5CCOCC5)cc4)cccc3C2=O)C(=O)N1", "note": "[Form C]", "values": [{"measurement": "Form conversion in IPA slurry", "setting": "[1]", "result": "convert to Form A"}, {"measurement": "XRPD Result", "setting": "[1]; IPA, 24 h at RT", "result": "Form A"}, {"measurement": "XRPD Result", "setting": "[1]; MeOAc, 1 day at RT", "result": "Form A"}, {"measurement": "XRPD Result after DVS (adsorption/desorption cycles)", "setting": "[4]", "result": "Form A"}, {"measurement": "Form conversion upon exposure to high humidity", "setting": "[4]; higher than 70% RH in the DVS instrument", "result": "converts to the Form A crystal form; also recorded: convert to Form A"}, {"measurement": "XRPD pattern after heating", "setting": "[6]; heated to 165° C.", "result": "converts to the Form A crystal form; also recorded: consistent with Form A"}]}, {"smiles": "Cl.O=C1CC[C@H](N2Cc3c(OCc4ccc(CN5CCOCC5)cc4)cccc3C2=O)C(=O)N1", "note": "[Form E]", "values": [{"measurement": "Form conversion in IPA slurry", "setting": "[1]", "result": "converted to Form A"}, {"measurement": "XRPD Result", "setting": "[1]; IPA, 24 h at RT", "result": "Form A"}, {"measurement": "XRPD Result", "setting": "[2]; IPA/water (40/60), Spontaneous, RT", "result": "Form F"}, {"measurement": "XRPD Result", "setting": "[2]; IPA/water (60/40), Spontaneous, RT", "result": "Form F"}, {"measurement": "XRPD Result", "setting": "[2]; IPA/water (80/20), Spontaneous, RT", "result": "Form F"}, {"measurement": "XRPD Result", "setting": "[2]; IPA/water (90/10), Spontaneous, RT", "result": "Form F"}, {"measurement": "XRPD Result", "setting": "[2]; IPA/water (95/5), Spontaneous, RT", "result": "Form F"}, {"measurement": "Form conversion in IPA/water mixtures", "setting": "[2]; various IPA/water mixtures", "result": "convert to Form F"}, {"measurement": "Hygroscopicity (in words, from DVS)", "setting": "[4]", "result": "hygroscopic"}, {"measurement": "XRPD Result after DVS (adsorption/desorption cycles)", "setting": "[4]", "result": "converts to the Form F crystal form; also recorded: partially converted to Form F"}, {"measurement": "DVS or other comments: form conversion", "setting": "[4]; during DVS experiment", "result": "Converts to Form F"}, {"measurement": "XRPD pattern after heating", "setting": "[6]; heated to 120° C.", "result": "remains as the Form E crystal form; also recorded: consistent with Form E"}, {"measurement": "XRPD pattern after heating", "setting": "[6]; heated to 190° C.", "result": "converts to an amorphous form; also recorded: amorphous pattern"}]}, {"smiles": "Cl.O=C1CC[C@H](N2Cc3c(OCc4ccc(CN5CCOCC5)cc4)cccc3C2=O)C(=O)N1", "note": "[Form I]", "values": [{"measurement": "XRPD Result", "setting": "[1]; MeOAc, 1 minute at RT", "result": "Form A"}, {"measurement": "Form conversion upon exposure to ambient humidity / ambient condition", "setting": "[1]; listed as I", "result": "Converts to Form A"}, {"measurement": "XRPD pattern after washing with MeOAc", "setting": "[1]; washed with MeOAc", "result": "converts to the Form A crystal; also recorded: consistent with Form A"}]}, {"smiles": "Cl.O=C1CC[C@H](N2Cc3c(OCc4ccc(CN5CCOCC5)cc4)cccc3C2=O)C(=O)N1", "note": "[Form K]", "values": [{"measurement": "Form conversion upon exposure to ambient humidity / ambient condition", "setting": "[1]", "result": "converts to the Form F crystal; also recorded: convert to Form F"}, {"measurement": "Form conversion upon exposure to ambient humidity / ambient condition", "setting": "[1]; listed as K", "result": "Converts to Form F"}]}]}
